Measurements taken from patent US20260001828A1, “BIOBASED SURFACTANT AND ANTIOXIDANT” (BLOOM BIORENEWABLES SA, priority 2022, published 2026).

How the values were obtained:
[1] = DPPH free radical antioxidant activity test (UV/visible spectrophotometry, 517 nm); type: biochemical
Protocol: The antioxidant activity is assessed by measuring the capacity of the compound to react with a free radical (here 2,2-diphenyl-1-picrylhydrazyl also known as DPPH). […] Butylated hydroxytoluene (BHT) and vitamin E were used as […] substances (positive control) and glycerol as negative control (see FIGS. 3 and 4).

[2] = Surface tension by pendant drop method, water/air interface; type: physicochemical
Protocol: Surface tension measurements were performed using the pendant drop method by Kruss EasyDrop Standard drop shape analysis system. […]

Row | Water/air interface (surface tension) ([2]; concentration 0.10 wt %) [mN/m] | Compound | inhibition rate ([1]; concentration of 5 μg/mL) [%] | inhibition rate ([1]; concentration of 10 μg/mL) [%] | inhibition rate ([1]; concentration of 50 μg/mL) [%] | other results
1 | – | Cc1cc(C(C)(C)C)c(O)c(C(C)(C)C)c1 [BHT, Butylated hydroxytoluene] | 32 | 54 | 85 | –
2 | – | nonylphenol ethoxylate [NPE] | – | – | – | Water/air interface (surface tension) ([2]; concentration 0.02 wt %): 36 mN/m
3 | 48.3 | CCCc1cc(OC)c(O)c(OC)c1 [4-propylsyringol] | 65 | 84 | 85 | Water/air interface (surface tension) ([2]; concentration 0.50 wt %): 34.9 mN/m; Water/air interface (surface tension) ([2]; concentration 1.00 wt %): 32.3 mN/m
4 | – | CCCCCCCCCCCCOS(=O)(=O)[O-].[Na+] [SLS, sodium lauryl sulfate] | – | – | – | Water/air interface (surface tension) ([2]; concentration 0.20 wt %): 35.4 mN/m
5 | 45.1 | CCCc1cc(OC)c([O-])c(OC)c1.[Na+] [PSNa, 4-propylsyringol sodium salt] | – | – | – | Water/air interface (surface tension) ([2]; concentration 0.50 wt %): 39.8 mN/m; Water/air interface (surface tension) ([2]; concentration 1.00 wt %): 33.8 mN/m
6 | – | sodium lauryl ether sulfate [SLES] | – | – | – | Water/air interface (surface tension) ([2]; concentration 0.02 wt %): 33.8 mN/m
7 | – | vitamin E | 28 | 61 | 84 | –
8 | – | CCCCC(CC)COC(=O)CC(C(=O)OCC(CC)CCCC)S(=O)(=O)[O-].[Na+] (centres unmarked) [DOSS, Dioctyl Sodium Sulfosuccinate] | – | – | – | Water/air interface (surface tension) ([2]; concentration 0.20 wt %): 51 mN/m
9 | 33 | Sodium linear alkylbenzenesulfonate [NaLAS] | – | – | – | –
